± gives the standard deviation.
Experiment: chemical recovery from spiked human plasma; higher = better extraction
Conditions: pooled human plasma; extraction method: PES+SPE (3 d PDMS equilibration then HLB SPE)
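Note: plasma spiked with over 400 chemicals, quantified by LC-HRMS and GC-HRMS via internal standard calibration against matrix-matched unspiked plasma extracts plus spike mix.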

SMILES	chemical recovery [%]
Nc1ccc(Sc2ccc(N)cc2)cc1 [4,4'-Thiodianiline]	1.15 ± 0.088
O=C(O)C(F)(F)C(F)(F)C(F)(F)C(F)(F)C(F)(F)C(F)(F)C(=O)O [Perfluorosuberic-acid-]	0.975 ± 0.36
CNC(=O)c1ccccc1 [N-Methylbenzamide]	35 ± 8.6
CNC(=O)O/N=C(\C)SC [Methomyl]	50.6 ± 5
COc1cc(NC(=O)CC(C)=O)c(OC)cc1Cl [4'-Chloro-2',5'-dimethoxyacetoacetanilide]	21.7 ± 5
Nc1ccc(Oc2ccc(N)cc2)cc1 [4,4'-Oxydianiline]	0.849 ± 0.6
Oc1ccccc1-c1ccccc1O [2,2'-Dihydroxybiphenyl]	46.1 ± 1.6
Oc1cc(O)c2c(c1)O[C@H](c1ccc(O)c(O)c1)[C@H](O)C2 [(-)-Epicatechin]	1.62 ± 1.1
CC1(C)C(=O)NC(=O)NC1=O [5,5-Dimethylbarbituric-acid]	5.81 ± 5
CCC(Cc1ccccc1)(C(=O)c1ccc(N2CCOCC2)cc1)N(C)C (configuration not stated) [Irgacure-369]	19.4 ± 3.7
COc1cccc([C@@]2(O)CCCC[C@@H]2CN(C)C)c1 [Tramadol]	31.3 ± 3.1
CN(C)CC(c1ccc(O)cc1)C1(O)CCCCC1 (configuration not stated) [Venlafaxine-O-desmethyl]	31.3 ± 3.1
Cc1cccc(C)c1NC(=O)CS(=O)(=O)O	21.8 ± 8.2
Cc1ccc2cc3ccccc3cc2c1 [2-Methylanthracene]	51.5 ± 4.5
CC(NC(C)(C)C)C(=O)c1cccc(Cl)c1 (configuration not stated) [Bupropion]	0.191 ± 0.047
O=S(=O)(O)C(F)(F)C(F)(F)C(F)(F)C(F)(F)C(F)(F)C(F)(F)F [Perfluorohexanesulfonic-acid]	40.9 ± 4.1

SMILES	chemical recovery [%]
CCCC1CC(C(=O)NC(C(C)Cl)C2OC(SC)C(O)C(O)C2O)N(C)C1 (configuration not stated) [Clindamycin]	36.7 ± 3.7
CC(Oc1ccc(Oc2cnc3cc(Cl)ccc3n2)cc1)C(=O)O (configuration not stated) [Quizalofop]	43.1 ± 5.6
CC(C)OC(=O)Nc1cccc(Cl)c1 [Chlorpropham]	37.9 ± 13
CC(Oc1ccc(Oc2nc3ccc(Cl)cc3o2)cc1)C(=O)O (configuration not stated) [Fenoxaprop-P]	42.2 ± 5
COc1ccccc1OCC(O)COC(N)=O (configuration not stated) [Methocarbamol]	40.6 ± 2.7
CCCC(Cn1cncn1)c1ccc(Cl)cc1Cl (configuration not stated) [Penconazole]	51.3 ± 5.9
Clc1ccc(C(c2ccc(Cl)cc2)C(Cl)(Cl)Cl)cc1 [4,4'-DDT]	81.7 ± 22
CCCC(C)C1(CC)C(=O)NC(=O)NC1=O (configuration not stated) [Pentobarbital]	49.6 ± 5.1
O=C(CC(C(=O)OC1CCCCC1)S(=O)(=O)O)OC1CCCCC1 (configuration not stated) [Dicyclohexyl sulfosuccinate]	37.7 ± 3.3
O=P(OCC(Br)CBr)(OCC(Br)CBr)OCC(Br)CBr (configuration not stated) [Tris(2,3-dibromopropyl)phosphate]	60.7 ± 8
O=C(O)c1cc(C(=O)O)cc([N+](=O)[O-])c1 [5-Nitroisophthalic-acid]	79.2 ± 17
CCC1(c2ccccc2)C(=O)NCNC1=O [Primidone]	41.5 ± 2.6
C[N+]1(C)CCCCC1 [Mepiquat]	0.578 ± 0.063
C=C(C)C(N)=O [Methacrylamide]	0.198 ± 0.34
CCCCCCCCCCS(=O)(=O)O [1-Decanesulfonic-acid]	42 ± 5.2

Same assay, conditions: pooled human plasma; extraction method: SPE only (HLB 96-well)

SMILES	chemical recovery [%]
Nc1ccc(Sc2ccc(N)cc2)cc1 [4,4'-Thiodianiline]	8.97 ± 1.9
c1ccc2c(c1)cc1ccc3cccc4ccc2c1c34 [Benzo(a)pyrene]	4.36 ± 4
O=C(O)C(F)(F)C(F)(F)C(F)(F)C(F)(F)C(F)(F)C(F)(F)C(=O)O [Perfluorosuberic-acid-]	5.56 ± 1.8
CC12CC1(C)C(=O)N(c1cc(Cl)cc(Cl)c1)C2=O (configuration not stated) [Procymidone]	18.9 ± 2.2
CNC(=O)c1ccccc1 [N-Methylbenzamide]	38.2 ± 3
c1cc2c3c(cccc3c1)CC2 [Acenaphthene]	9.53 ± 0.88
CNC(=O)O/N=C(\C)SC [Methomyl]	47.3 ± 1.8
COc1cc(NC(=O)CC(C)=O)c(OC)cc1Cl [4'-Chloro-2',5'-dimethoxyacetoacetanilide]	43.2 ± 5.5
Cc1cccc2cc3ccccc3cc12 [1-Methylanthracene]	4.65 ± 1.1
Nc1ccc(Oc2ccc(N)cc2)cc1 [4,4'-Oxydianiline]	8.07 ± 0.83
Oc1ccccc1-c1ccccc1O [2,2'-Dihydroxybiphenyl]	43.3 ± 2.8
COc1c(C(C)(C)C)cc([N+](=O)[O-])c(C)c1[N+](=O)[O-] [Musk ambrette]	2.96 ± 0.74
Oc1cc(O)c2c(c1)O[C@H](c1ccc(O)c(O)c1)[C@H](O)C2 [(-)-Epicatechin]	10.4 ± 5.1
CC1(C)C(=O)NC(=O)NC1=O [5,5-Dimethylbarbituric-acid]	8.69 ± 8.3
CCC(Cc1ccccc1)(C(=O)c1ccc(N2CCOCC2)cc1)N(C)C (configuration not stated) [Irgacure-369]	36.8 ± 1.1
COc1cccc([C@@]2(O)CCCC[C@@H]2CN(C)C)c1 [Tramadol]	31.2 ± 2.6
CN(C)CC(c1ccc(O)cc1)C1(O)CCCCC1 (configuration not stated) [Venlafaxine-O-desmethyl]	31.2 ± 2.6
Cc1cccc(C)c1NC(=O)CS(=O)(=O)O	5.38 ± 9.3
Cc1ccc2cc3ccccc3cc2c1 [2-Methylanthracene]	3.56 ± 0.86
CC(NC(C)(C)C)C(=O)c1cccc(Cl)c1 (configuration not stated) [Bupropion]	37.7 ± 3.8
O=C(O)C(F)(F)C(F)(F)C(F)(F)C(F)(F)C(F)(F)C(F)(F)C(F)(F)C(F)(F)C(F)(F)C(F)(F)F [Perfluoroundecanoic-acid]	26.8 ± 6
O=S(=O)(O)C(F)(F)C(F)(F)C(F)(F)C(F)(F)C(F)(F)C(F)(F)F [Perfluorohexanesulfonic-acid]	34.4 ± 2.7
CC(C)(C)c1cc(-n2nc3ccc(Cl)cc3n2)c(O)c(C(C)(C)C)c1 [UV-327]	1.82 ± 1.6

SMILES	chemical recovery [%]
CCCCCCCCOc1ccc(-c2nc(-c3ccc(C)cc3C)nc(-c3ccc(C)cc3C)n2)c(O)c1 [UV-1164]	0.287 ± 0.085
CCCC1CC(C(=O)NC(C(C)Cl)C2OC(SC)C(O)C(O)C2O)N(C)C1 (configuration not stated) [Clindamycin]	37.9 ± 2.5
CC(Oc1ccc(Oc2cnc3cc(Cl)ccc3n2)cc1)C(=O)O (configuration not stated) [Quizalofop]	28.1 ± 1.3
C[C@H](CCC(=O)O)[C@H]1CC[C@H]2[C@@H]3[C@H](O)C[C@@H]4C[C@H](O)CC[C@]4(C)[C@H]3C[C@H](O)[C@]12C [Cholic-acid]	48.4 ± 3.9
CCCOC(=O)NCCCN(C)C [Propamocarb]	6.68 ± 4.3
CCCCC(CC)COP(=O)(Oc1ccccc1)Oc1ccccc1 (configuration not stated) [2-Ethylhexyldiphenylphosphate]	38.9 ± 8.9
CNC(=O)c1cc(Oc2ccc(NC(=O)Nc3ccc(Cl)c(C(F)(F)F)c3)cc2)ccn1 [Sorafenib]	61.3 ± 14
CC(C)OC(=O)Nc1cccc(Cl)c1 [Chlorpropham]	41.5 ± 2.7
CC(Oc1ccc(Oc2nc3ccc(Cl)cc3o2)cc1)C(=O)O (configuration not stated) [Fenoxaprop-P]	26.7 ± 2.6
CCCCCCCCCCCCS(=O)(=O)O [1-Dodecanesulfonic-acid]	25.6 ± 3
Cc1ccc2c(c1)c1cccc3ccc4cccc2c4c31 [10-Methylbenzo[e]pyrene]	0.0979 ± 0.085
COc1ccccc1OCC(O)COC(N)=O (configuration not stated) [Methocarbamol]	36.1 ± 3.5
CCCC(Cn1cncn1)c1ccc(Cl)cc1Cl (configuration not stated) [Penconazole]	65.9 ± 1.6
Clc1ccc(C(c2ccc(Cl)cc2)C(Cl)(Cl)Cl)cc1 [4,4'-DDT]	3.49 ± 1.1
CCCC(C)C1(CC)C(=O)NC(=O)NC1=O (configuration not stated) [Pentobarbital]	43.8 ± 2
O=C(CC(C(=O)OC1CCCCC1)S(=O)(=O)O)OC1CCCCC1 (configuration not stated) [Dicyclohexyl sulfosuccinate]	27.6 ± 3.1
O=P(OCC(Br)CBr)(OCC(Br)CBr)OCC(Br)CBr (configuration not stated) [Tris(2,3-dibromopropyl)phosphate]	14.8 ± 3.3
O=C(O)c1cc(C(=O)O)cc([N+](=O)[O-])c1 [5-Nitroisophthalic-acid]	50.5 ± 17
Cc1cc2cccc(C)c2cc1C [1,6,7-Trimethylnaphthalene]	2.3 ± 4
CCC1(c2ccccc2)C(=O)NCNC1=O [Primidone]	36.6 ± 3.8
Cc1ccc2cc(C)ccc2c1 [2,6-Dimethylnaphthalene]	0.083 ± 0.072
Oc1ccnc2ccccc12 [4-Hydroxyquinoline]	44.7 ± 1.7
CN/C(=N/CC1CCOC1)N[N+](=O)[O-] (configuration not stated) [Dinotefuran]	27.4 ± 2.9
